Measurements published in ChEMBL document CHEMBL4118221, “Vinyldiaminotriazine-acridine conjugate as G-quadruplex alkylating agent” (Bioorg Med Chem, 2018).
Blank lines part the entries; values can stand above or below the compound they belong to. Active and inactive are the calls of the source. The calls are words filed in the database; no cut-off is given here.

Legend:
[1] = Alkylating activity at 5'-FAM-labeled T-T mismatched duplex DNA (unknown origin) in MES buffer at 100 uM measured up to 72 hrs by PAGE analysis; format: functional
Quadruplex DNA [2] = assay: Alkylating activity at 5'-FAM-labeled human telomeric G-quadruplex DNA at 100 uM in Na+ buffer measured up to 72 hrs by PAGE analysis; format: functional
dsDNA = assay: Alkylating activity at 5'-FAM-labeled T-A full-matched duplex DNA (unknown origin) in MES buffer at 100 uM measured up to 72 hrs by PAGE analysis; format: functional
Quadruplex DNA [3] = assay: Alkylating activity at 5'-FAM-labeled human telomeric G-quadruplex DNA in K+ buffer at 100 uM measured up to 72 hrs by PAGE analysis; format: functional
[4] = Solubility of the compound in water; format: physicochemical; settings: buffer
[5] = Binding affinity to T-T mismatched duplex DNA (unknown origin) by isothermal calorimetric titration method
[6] = Binding affinity to T-T mismatched duplex DNA (unknown origin) in MES buffer at 0.2 uM after 15 mins by spectrofluorometric method
Quadruplex DNA [7] = assay: Binding affinity to human telomeric G-quadruplex DNA in Na+ buffer at 0.2 uM after 15 mins by spectrofluorometric method; format: nucleic-acid assay
Quadruplex DNA [8] = assay: Binding affinity to human telomeric G-quadruplex DNA in K+ buffer at 0.2 uM after 15 mins by spectrofluorometric method; format: nucleic-acid assay
Quadruplex DNA [9] = assay: Binding affinity to human telomeric G-quadruplex DNA in Na+ buffer at 9.4 uM UV-vis titration analysis; format: nucleic-acid assay
Quadruplex DNA [10] = assay: Binding affinity to human telomeric G-quadruplex DNA in K+ buffer at 9.4 uM by UV-vis titration analysis; format: nucleic-acid assay
Quadruplex DNA [11] = assay: Alkylating activity at 25T base of human telomeric G-quadruplex DNA in Na+ buffer at 100 uM using 9-mer primer after 72 hrs by primer extension method; format: functional
Quadruplex DNA [12] = assay: Alkylating activity at human telomeric G-quadruplex DNA in K+ buffer assessed as thermal stabilization by measuring change in melting temperature at 1.5 uM by circular dichroism spectral analysis; format: functional
Quadruplex DNA [13] = assay: Alkylating activity at 14G base of human telomeric G-quadruplex DNA in Na+ buffer at 100 uM using 9-mer primer after 72 hrs by primer extension method; format: functional
Quadruplex DNA [14] = assay: Alkylating activity at 18T base of human telomeric G-quadruplex DNA in K+ buffer at 100 uM using 9-mer primer after 72 hrs by primer extension method; format: functional
Quadruplex DNA [15] = assay: Alkylating activity at 19T base of human telomeric G-quadruplex DNA in K+ buffer at 100 uM using 9-mer primer after 72 hrs by primer extension method; format: functional
Quadruplex DNA [16] = assay: Alkylating activity at T base of human telomeric G-quadruplex DNA in K+ buffer assessed as thymidine-compound adduct formation at 100 uM using 9-mer primer after 72 hrs by alkaline phosphatase and phosphodiesterase-1 enzymatic hydrolysis assay based ESI-MS analysis; format: functional
Quadruplex DNA [17] = assay: Alkylating activity at 14G base of human telomeric G-quadruplex DNA in K+ buffer at 100 uM using 9-mer primer after 72 hrs by primer extension method; format: functional
Quadruplex DNA [18] = assay: Effect on conformation of human telomeric G-quadruplex DNA in Na+ buffer by circular dichroism spectral analysis; format: nucleic-acid assay
Quadruplex DNA [19] = assay: Alkylating activity at 19T base of human telomeric G-quadruplex DNA in Na+ buffer at 100 uM using 9-mer primer after 72 hrs by primer extension method; format: functional
Quadruplex DNA [20] = assay: Alkylating activity at T bases of human telomeric G-quadruplex DNA in K+ buffer at 100 uM using 11-mer primer after 72 hrs by primer extension method; format: functional
Quadruplex DNA [21] = assay: Alkylating activity at 12T base of human telomeric G-quadruplex DNA in Na+ buffer at 100 uM using 9-mer primer after 72 hrs by primer extension method; format: functional
Quadruplex DNA [22] = assay: Effect on conformation of human telomeric G-quadruplex DNA in K+ buffer by circular dichroism spectral analysis; format: nucleic-acid assay
Quadruplex DNA [23] = assay: Alkylating activity at 13T base of human telomeric G-quadruplex DNA in K+ buffer at 100 uM using 9-mer primer after 72 hrs by primer extension method; format: functional
Quadruplex DNA [24] = assay: Alkylating activity at 18T base of human telomeric G-quadruplex DNA in Na+ buffer at 100 uM using 9-mer primer after 72 hrs by primer extension method; format: functional
Quadruplex DNA [25] = assay: Alkylating activity at 24T base of human telomeric G-quadruplex DNA in Na+ buffer at 100 uM using 9-mer primer after 72 hrs by primer extension method; format: functional
Quadruplex DNA [26] = assay: Alkylating activity at 13T base of human telomeric G-quadruplex DNA in Na+ buffer at 100 uM using 9-mer primer after 72 hrs by primer extension method; format: functional
Quadruplex DNA [27] = assay: Alkylating activity at human telomeric G-quadruplex DNA in Na+ buffer assessed as thermal stabilization by measuring change in melting temperature at 1.5 uM by circular dichroism spectral analysis; format: functional
Quadruplex DNA [28] = assay: Alkylating activity at 12T base of human telomeric G-quadruplex DNA in K+ buffer at 100 uM using 9-mer primer after 72 hrs by primer extension method; format: functional
Quadruplex DNA [29] = assay: Alkylating activity at T bases of human telomeric G-quadruplex DNA in Na+ buffer at 100 uM using 11-mer primer after 72 hrs by primer extension method; format: functional

solubility [4]: Soluble
SMILES: C=Cc1nc(N)nc(NCCCCNc2c3ccccc3nc3c(C(=O)NCCCN(C)CCCNC(C)=O)cccc23)n1
Activity [1]: inactive
Activity (Quadruplex DNA [2]): Active
Activity (dsDNA): inactive
Activity (Quadruplex DNA [3]): Active

Kd [6]: 640 nM
Activity (Quadruplex DNA [7]): inactive
Kd (Quadruplex DNA [8]): 440 nM
SMILES: CSCCc1nc(N)nc(NCCCCNc2c3ccccc3nc3c(C(=O)NCCCN(C)C)cccc23)n1

Activity (Quadruplex DNA [16]): Active
Activity (Quadruplex DNA [18]): inactive
Activity (Quadruplex DNA [22]): inactive
solubility [4]: Soluble
SMILES: C=Cc1nc(N)nc(NCCCCNc2c3ccc(Cl)cc3nc3ccc(OC)cc23)n1
Activity (Quadruplex DNA [11]): Active
ΔTm (Quadruplex DNA [12]): 12.7 °C
Activity (Quadruplex DNA [13]): Active
Activity (Quadruplex DNA [14]): Active
Activity (Quadruplex DNA [15]): Active
Activity [1]: Active
Activity (Quadruplex DNA [17]): Active
Activity (Quadruplex DNA [19]): Active
Activity (Quadruplex DNA [20]): Active
Activity (Quadruplex DNA [21]): Active
Activity (Quadruplex DNA [23]): Active
Activity (Quadruplex DNA [24]): Active
Activity (Quadruplex DNA [25]): Active
Activity (Quadruplex DNA [26]): Active
ΔTm (Quadruplex DNA [27]): 5.4 °C
Activity (Quadruplex DNA [2]): Active
Activity (dsDNA): inactive
Activity (Quadruplex DNA [3]): Active
Activity (Quadruplex DNA [28]): Active
Activity (Quadruplex DNA [29]): Active

solubility [4]: Soluble
SMILES: C=Cc1nc(N)nc(NCCCCNc2c3ccccc3nc3c(C(=O)NCCCN(C)C)cccc23)n1
Activity [1]: inactive
Activity (Quadruplex DNA [2]): Active
Activity (dsDNA): inactive
Activity (Quadruplex DNA [3]): Active

Further lines, the compound ahead of its results:

SMILES: COc1ccc2nc3cc(Cl)ccc3c(NCCCCNc3nc(N)nc(N)n3)c2c1
Kd [5]: 510 nM

SMILES: COc1ccc2nc3cc(Cl)ccc3c(NCCCCNc3nc(N)nc(CCSC)n3)c2c1
Kd (Quadruplex DNA [9]): 2210 nM
Kd (Quadruplex DNA [10]): 1940 nM
Kd [6]: 1290 nM
Activity (Quadruplex DNA [7]): inactive
Kd (Quadruplex DNA [8]): 610 nM
